The test system of data set [1] is 9L gliosarcomas. Set-up: species or system Fischer 344 rats. Particulars: rat, in vivo, iv. Here is the method:
2C. Preparation of CuTCP and CuTCP-H Solution for Rat Studies
(§1) CuTCP-H as prepared in Example 1D was formulated with 9% CRM and 18% PrG to form a solution to which saline was added dropwise to yield 3.34 mg/ml of CuTCP and […] CuTCP-H, respectively. The resulting total doses were 215 mg/kg body weight for CuTCP and 149 mg/kg body weight for CuTCP-H. These solutions were then utilized for toxicity and biodistribution experiments in rats.
(§2) Direct current plasma-atomic emission spectroscopy [DCP-AES] (ARL/Fisons Model SS-7) was used (detection limit: 0.1 μg/ml). Samples (50-130 mg) were digested at 60° C. with sulfuric acid:nitric acid (1:1). Triton X-100 and water were added to give final concentrations of ≈50 mg tissue/ml, 15% total acid v/v and 5% Triton X-100 v/v. Fat and liver tissues were assayed for ^10 B by prompt-gamma spectroscopy (Fairchild, et al., 1986). The prompt-gamma measurements were multiplied by 5.0 to give the total boron concentrations due to the use of boron of natural isotope abundance in the syntheses of all boronated porphyrins reported.
Male Fischer 344 rats each bearing 4 subcutaneous 9L gliosarcomas were given 210-219 mg CuTCP/kg body wt by 48-h iv infusion. Tumor and blood were sampled at 0, 1, 2, and 3 days after the end of infusion for boron analyses and blood for toxicity. Rats were euthanized on day 3 and other organs were analyzed for boron uptake.

Data set [2] can be described thus: Toxicity testing of NiTCP, MnTCP and CuTCP in normal mice (Example 13, Table 3). Type of data set: in vivo, BALB/c mice. Particulars: 4 days after last of 6 ip injections. Here is the method: Levels of glucose [GLU], blood urea nitrogen [BUN], blood creatinine [BCR], alanine transaminase [ALT], aspartate transaminase [AST], alkaline phosphatase [ALP], total protein [TPR], albumin [ALB], and creatine phosphokinase [CPK] were determined in blood plasma using a Cobas Fara II microanalysis system. Blood platelets [PLT] and white blood cells [WBC] were counted using a Serono-Baker System 9000 automated hematology microanalyzer.
Compounds prepared as in Example 1B and 1C were formulated with 6% Cremophor EL [CRM] and 12% propylene glycol [PrG] in saline. Total doses of MnTCP and CuTCP of 174 and 223 μg/g body weight, respectively, were administered to normal BALB/c mice. Each mouse was given 6 intraperitoneal [ip] injections over a period of 32 hours. Mice were euthanized 4 days after the last injection and chemical, enzymatic and hematological analyses of their blood were compared to those of similar mice given NiTCP at a dose of 252 μg/g body weight.

Data set [3] in a line: Overall ranking of boronated porphyrins for BNCT guided by biodistribution and toxicity tests in mice (Table 11). Here is the method:
The higher the numerical value, the better the performance of that porphyrin for that property. […] Although VCDP was able to deliver therapeutic amounts of boron to tumor, such side effects such as thrombocytopenia, which was induced within 3 hours after injections, weight loss, and the altered hepatic enzymes were serious enough to rank VCDP considerably behind the TCP's and the TCP-H's (Miura et al., 1992). In addition, the 80-hour drug administration period and the 90-hour blood clearance period are of great inconvenience. Moreover, this 4-day difference between the VCDP and the TCP (or TCP-H) dose and clearance schedules would translate into a 4-day greater delay between initiation of drug administration and neutron irradiation which would allow greater tumor growth to occur.
[…]
biodistribution and toxicity tests in mice. An asterisk indicates

The test system of data set [4] is 9L gliosarcomas. Set-up: species or system Fischer 344 rats. Particulars: rat, in vivo. Here is the method: as §1, §2
CuTCP-H (146-152 mg/kg body weight) was given to four Fischer 344 rats each bearing four subcutaneous 9L gliosarcomas. A solution of 3.34 mg CuTCP-H/mL, in 9% CRM and 18% PrG, was given to rats by 48-hour i.v. infusion in a total volume of 9.6 mL.

Where two headings read alike, the source gives them in different places.

Take “Copper Tetracarboranylphenylporphyrin [CuTCP]”: the “time to rapid and almost total clearance of boron in blood” value with 9L gliosarcomas [1] was not above 2 days. The “Boron concentration in tumor” value in the data set on 9L gliosarcomas [1] (215 mg/kg, 0 h) is listed as 54-68 μg B/g. Besides, in the data set on 9L gliosarcomas [1] (215 mg/kg, 48 h), the “Boron concentration in tumor” value is on record as 38-69 μg B/g, the boron in cerebellum is 1.5 μg B/g, the boron in cerebrum came out at 2.5 μg B/g and the “median boron in blood” value stood at 6 μg B/g. In the data set with 9L gliosarcomas [1] (215 mg/kg, 48 h), the “median boron in tumor” value amounted to 55 μg B/g. Further, in the data set with 9L gliosarcomas [1] (215 mg/kg, 72 h), the “average boron concentration, cerebellum” value is recorded as 1-2 μg B/g and the “average boron concentration, cerebrum” value is listed as 1-2 μg B/g. Also, the “toxicity / thrombocytopenia, in words” value in data set [2] is on record as “little if any difference in toxicity”. Also, in data set [3], the “Drug tolerance/deliverable boron (ranking)” value was 4, the “Lipophilicity (ranking)” value came to 2, the “Tumor uptake (normalized) (ranking)” value is 3 and the “Tumor:Blood (ranking)” value was found to be 3.
In the case of “Copper Tetracarboranylporphyrin Hydride [CuTCP-H]”, in the data set on 9L gliosarcomas [4] (2880 min), the “tumor:blood ratio (boron)” value was 16:1. In addition, in the data set on 9L gliosarcomas [4] (iv, 149 mg/kg, 0 h), the “Boron concentration, Blood” value is 183 (160-205) μg B/g and the “Boron concentration, Tumor” value was 45 (23-51) μg B/g. Besides, in the data set on 9L gliosarcomas [4] (iv, 149 mg/kg, 24 h), the “Boron concentration, Blood” value is recorded as 62 (56-65) μg B/g and the “Boron concentration, Tumor” value is given as 46 (35-52) μg B/g. Besides, in the data set on 9L gliosarcomas [4] (iv, 149 mg/kg, 120 h), the “Boron concentration, Blood” value is 0.6 (0.3-0.7) μg B/g; the “Boron concentration, Cerebellum” value was 2.8 (2.1-6.2) μg B/g; the “Boron concentration, Cerebrum” value is reported as 4.9 (2.2-6.9) μg B/g; the “Boron concentration, Liver” value is listed as 345 (336-408) μg B/g. For the same substance, the “Boron concentration, Tumor” value in the data set on 9L gliosarcomas [4] (iv, 149 mg/kg, 120 h) is 31 (23-55) μg B/g.
“Manganese Tetracarboranylphenylporphyrin [MnTCP]”: the “toxicity / thrombocytopenia, in words” value in data set [2] is listed as “little if any difference in toxicity”.

Source of the values: patent US5877165A, “Boronated porhyrins and methods for their use” (priority 1997, dated 1999).
